Data: patent EP4442727A1, “EPOXY RESIN COMPOSITIONS COMPRISING A LEWIS ACID” (priority 2023, dated 2024)
Read-outs that look alike come from different tables or passages of the source.

Legend:
[1] = format: physicochemical; details: for Viscosity, Initial: Epoxy Composition 3 (Table 8) with the named Lewis Acid Additive, before storage; for 7d (increase in viscosity in %) / Viscosity, 7d / 15 d (increase in viscosity in %) / Viscosity, 15 d: Epoxy Composition 3 with the named Lewis Acid Additive; for 7d (increase in viscosity in %) / Viscosity, 7d: stored at 50°C for 7 days; for 15 d (increase in viscosity in %) / Viscosity, 15 d: stored at 50°C for 15 days
Description: The A1 value gave the viscosity in Pascal seconds.
The epoxy resin was put in a Speedmixer cup (Hauschild Engineering), the thixotrope and dicyandiamide were added, and the raw materials mixed at 3500 s^-1 for 5 min. The accelerator and the additive were then weighed into the resin formulation and the mixture again speedmixed at 3500 s^-1 for 15 s. Formulations were stored at 50 °C. The complex viscosity was determined after 7 d and 15 d. Table 9. Viscosity of adhesive formulations stored at 50°C for 7 and 15 days in Pa*s.

[2] = cited from earlier work

[O]=[Zn] [ZnO, Zinc oxide]
Viscosity, Initial [1]: 48 Pa*s | 7d (increase in viscosity in %) [1]: 233% | Viscosity, 7d [1]: 112 Pa*s | 15 d (increase in viscosity in %) [1]: 17235% | Viscosity, 15 d [1]: 8273 Pa*s | solubility in water ([2]; at 17.8°C): solubility in water 0.0004% at 17.8 °C

CCCCCCCCCCCCCCCCCC(=O)[O-].[Al+3].[OH-].[OH-] [AMS, Aluminum monostearate]
Viscosity, Initial [1]: 53 Pa*s | 7d (increase in viscosity in %) [1]: 245% | Viscosity, 7d [1]: 130 Pa*s | 15 d (increase in viscosity in %) [1]: 337% | Viscosity, 15 d [1]: 179 Pa*s

[Cl-].[Cl-].[Zn+2] [ZnCl2, Zinc chloride]
Viscosity, Initial [1]: 54 Pa*s | 7d (increase in viscosity in %) [1]: 140% | Viscosity, 7d [1]: 76 Pa*s | 15 d (increase in viscosity in %) [1]: 292% | Viscosity, 15 d [1]: 158 Pa*s | solubility in water ([2]; at 25°C): 432 g/100g | solubility in water ([2]; at 25°C, printed in brackets beside the g/100g value): 4320 g/L
